Measured values taken from US8802597B2, “Herbicidal pyrimidines” (E I du Pont de Nemours and Company, priority 2003, dated 2014).
Like-named read-outs stand apart in the source and are kept apart here.

Columns and labels:
Experiment in all cases: Test C pre/postemergence
Format in all cases: in vivo
corn (Zea mays) = conditions: for Plant response rating, Corn: Preemergence
How it was run: (§1)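 We sprayed seeded pots preemergence and 2–18 cm seedlings postemergence with test chemicals in a non-phytotoxic solvent mixture including surfactant. Greenhouse plants were visually compared with untreated controls at 12 to 14 days and scored 0 (no effect) to 100 (complete control).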

[1] = system: morningglory (Ipomoea coccinea); conditions: for Plant response rating, Morningglory: Preemergence
How it was run: as §1

[2] = system: woolly cupgrass (Eriochloa villosa); conditions: for pest or weed control at 31 g/ha / pest or weed control at 62 g/ha / pest or weed control at 125 g/ha / pest or weed control at 16 g/ha: Eriochloa villosa
How it was run: as §1

[3] = 16 g ai/ha, scale 0 to 100, 0 no effect, 100 complete control
[4] = 31 g ai/ha, scale 0 to 100, 0 no effect, 100 complete control
[5] = 62 g ai/ha, scale 0 to 100, 0 no effect, 100 complete control
[6] = Postemergence, 125 g ai/ha, scale 0 to 100 (0 no effect, 100 complete control)

Row | Compound | Plant response rating, Corn (corn (Zea mays); [3]) | Plant response rating, Corn (corn (Zea mays); [4]) | Plant response rating, Corn (corn (Zea mays); [5]) | Plant response rating, Corn (corn (Zea mays); 125 g ai/ha, scale 0 to 100) | Plant response rating, Morningglory [1, 3] | Plant response rating, Morningglory [1, 4] | Plant response rating, Morningglory [1, 5] | Plant response rating, Morningglory ([1]; 125 g ai/ha, scale 0 to 100) | Plant response rating (scale of 0 to 100), Corn (corn (Zea mays); Postemergence, 16 g ai/ha) | Plant response rating (scale of 0 to 100), Corn (corn (Zea mays); Postemergence, 31 g ai/ha) | Plant response rating (scale of 0 to 100), Corn (corn (Zea mays); Postemergence, 62 g ai/ha) | Corn plant response rating (corn (Zea mays); [6]) | Plant response rating (scale of 0 to 100), Morningglory ([1]; Postemergence, 16 g ai/ha) | Plant response rating (scale of 0 to 100), Morningglory ([1]; Postemergence, 31 g ai/ha) | Plant response rating (scale of 0 to 100), Morningglory ([1]; Postemergence, 62 g ai/ha) | Morningglory plant response rating [1, 6] | Plant response rating (scale of 0 to 100), Cupgrass, Woolly ([2]; Postemergence, 16 g ai/ha) | Plant response rating (scale of 0 to 100), Cupgrass, Woolly ([2]; Postemergence, 31 g ai/ha) | Plant response rating (scale of 0 to 100), Cupgrass, Woolly ([2]; Postemergence, 62 g ai/ha) | Cupgrass, Woolly plant response rating [2, 6] | other results
1 | Nc1nc(C2CC2)nc(C(=O)[O-])c1Cl.[Na+] [Compound 77, 6-amino-5-chloro-2-cyclopropyl-4-pyrimidinecarboxylic acid monosodium salt] | 0 | 0 | 0 | 35 | 5 | 50 | 50 | 75 | – | – | – | – | – | – | – | – | – | – | – | – | pest or weed control at 31 g/ha ([2]; pre-emergence, Preemergence, 31 g ai/ha, scale 0 to 100, 0 no effect, 100 complete control, read-out: Plant response rating, Cupgrass, Woolly): 0%; pest or weed control at 62 g/ha ([2]; pre-emergence, Preemergence, 62 g ai/ha, scale 0 to 100, 0 no effect, 100 complete control, read-out: Plant response rating, Cupgrass, Woolly): 0%; pest or weed control at 125 g/ha ([2]; pre-emergence, Preemergence, 125 g ai/ha, scale 0 to 100, read-out: Plant response rating, Cupgrass, Woolly): 0%; Plant response rating, Cupgrass, Woolly ([2]; Preemergence, 16 g ai/ha, scale 0 to 100, 0 no effect, 100 complete control): 0
2 | COC(=O)c1nc(-c2ccc(Cl)cc2)nc(N)c1Br [Compound 83] | – | – | – | – | – | – | – | – | 5 | 15 | 50 | 60 | 70 | 85 | 90 | 90 | 15 | 15 | 45 | 60 | –
3 | Nc1nc(C2CC2)nc(C(=O)O)c1Cl [Compound 135, 6-amino-5-chloro-2-cyclopropyl-4-pyrimidinecarboxylic acid] | 5 | 30 | 30 | 70 | 85 | 90 | 90 | 100 | – | – | – | – | – | – | – | – | – | – | – | – | Corn plant response rating (crop injury, 0 = no effect, 100 = complete kill) at 16 g/ha (corn (Zea mays); Zea mays, post-emergence, Postemergence, 16 g ai/ha, read-out: Plant response rating (scale of 0 to 100), Corn): 5%; Corn plant response rating (crop injury, 0 = no effect, 100 = complete kill) at 31 g/ha (corn (Zea mays); Zea mays, post-emergence, Postemergence, 31 g ai/ha, read-out: Plant response rating (scale of 0 to 100), Corn): 10%; Corn plant response rating (crop injury, 0 = no effect, 100 = complete kill) at 62 g/ha (corn (Zea mays); Zea mays, post-emergence, Postemergence, 62 g ai/ha, read-out: Plant response rating (scale of 0 to 100), Corn): 20%; Corn plant response rating (crop injury, 0 = no effect, 100 = complete kill) at 125 g/ha (corn (Zea mays); Zea mays, post-emergence, Postemergence, 125 g ai/ha, scale 0 to 100 (0 no effect, 100 complete control), read-out: Corn plant response rating): 35%; pest or weed control at 16 g/ha ([1]; Ipomoea, post-emergence, Postemergence, 16 g ai/ha, read-out: Plant response rating (scale of 0 to 100), Morningglory): 80%; pest or weed control at 31 g/ha ([1]; Ipomoea, post-emergence, Postemergence, 31 g ai/ha, read-out: Plant response rating (scale of 0 to 100), Morningglory): 90%; pest or weed control at 62 g/ha ([1]; Ipomoea, post-emergence, Postemergence, 62 g ai/ha, read-out: Plant response rating (scale of 0 to 100), Morningglory): 95%; pest or weed control at 125 g/ha ([1]; Ipomoea, post-emergence, Postemergence, 125 g ai/ha, scale 0 to 100 (0 no effect, 100 complete control), read-out: Morningglory plant response rating): 95%; pest or weed control at 16 g/ha ([2]; post-emergence, Postemergence, 16 g ai/ha, read-out: Plant response rating (scale of 0 to 100), Cupgrass, Woolly): 30%; pest or weed control at 31 g/ha ([2]; post-emergence, Postemergence, 31 g ai/ha, read-out: Plant response rating (scale of 0 to 100), Cupgrass, Woolly): 60%; pest or weed control at 62 g/ha ([2]; post-emergence, Postemergence, 62 g ai/ha, read-out: Plant response rating (scale of 0 to 100), Cupgrass, Woolly): 60%; pest or weed control at 125 g/ha ([2]; post-emergence, Postemergence, 125 g ai/ha, scale 0 to 100 (0 no effect, 100 complete control), read-out: Cupgrass, Woolly plant response rating): 80%; pest or weed control at 16 g/ha ([2]; pre-emergence, Preemergence, 16 g ai/ha, scale 0 to 100, 0 no effect, 100 complete control, read-out: Plant response rating, Cupgrass, Woolly): 0%; Plant response rating, Cupgrass, Woolly ([2]; Preemergence, 31 g ai/ha, scale 0 to 100, 0 no effect, 100 complete control): 0; Plant response rating, Cupgrass, Woolly ([2]; Preemergence, 62 g ai/ha, scale 0 to 100, 0 no effect, 100 complete control): 0; Plant response rating, Cupgrass, Woolly ([2]; Preemergence, 125 g ai/ha, scale 0 to 100): 0
4 | Nc1nc(-c2ccc(Br)cc2)nc(C(=O)O)c1Br [Compound 136] | – | – | – | – | – | – | – | – | 35 | 35 | 65 | 75 | 65 | 85 | 90 | 100 | 55 | 65 | 70 | 70 | –
